Experimental data reported in US20100003217A1, “Compounds and Pharmaceutical Compositions for the Treatment of Viral Infections” (priority 2008, published 2010).

What was measured:
[1] = In vitro intracellular half-life of 2′-C-methyl guanosine-5′-triphosphate (Compound 7) in human primary hepatocytes; assay type: in vitro ADME; settings: human, primary hepatocytes (cellular extracts)
Procedure: (§1) Primary hepatocytes were incubated with 10 μM [^14C]-Compound 1 ([…]) or [^14C]-2′-C-methyl guanosine (127 DPM/μmol) for 24 hours at which time the incubation medium was removed and the cell monolayer carefully washed two times with warm (37° C.) PBS and placed back in culture with drug-free medium. At selected times up to 24 hours, the medium was removed and the cell monolayers carefully washed two times with ice-cold PBS. Following the last wash, all PBS was carefully removed and the cell monolayers processed and extracted as previously described. […]

[2] = test system: human primary hepatocytes; test: as above; assay type: in vitro ADME; settings: for Decay of Compound 7: level in cellular extracts: human hepatocytes Hu775; for Compound 7 levels after 24 hours without drug / reduction of Compound 7 levels after 24 hours without drug / Compound 7 levels at time zero: human hepatocytes
Procedure: as §1

[3] = Cytotoxicity assay (MTS), GS4.1 cells; assay type: cell-based, human; settings: human, 3 days (NS4A-ELISA Assay)
Procedure: The cytotoxicity assay measures the viability of cells after treatment with a test compound for 3 days in either GS4.1 cells or Zluc cells. […] The cytotoxicity assay is summarized as follows. Ninety-six-well tissue culture plates were seeded with GS4.1 or Zluc cells. Antiviral compound solutions were made up freshly in medium as 2×-concentrated stocks. Eight additional 3-fold drug dilutions were prepared from these stocks in medium for a total of 9 dilutions. At least four hours after the cells were seeded, drug treatment was initiated by adding one volume of each 2×-concentrated drug dilution to one volume of cells/medium in the tissue culture plates. Cells were then incubated for 3 days at 37° C./5% CO2. After 3 days of treatment, the CellTiter 96® Aqueous One Solution cell proliferation assay (Promega) was performed by adding the MTS solution to each well. The plates were then incubated at 37° C./5% CO2 for 3.5 hours. Plates were then read in a Victor^3V 1420 multilabel counter (Perkin Elmer) and CC50 concentrations were determined using Microsoft Excel and XLfit 4.1 software.

[4] = biological target: CYP1A2 (Homo sapiens, UniProt P05177); test: Incubation with human recombinant CYP450 supersomes, 1A2; assay type: in vitro ADME; settings: CYP450 1A2 supersomes, 60 min, 10 μM, average of two experiments
Procedure: (§2) Supersomes—Incubations were conducted in a final volume of 0.1 mL reaction buffer (50-100 mM potassium phosphate, pH 7.4 or 100 mM Tris-HCL, pH 7.4) according to protocol provided with each CYP450 supersome. Each reaction contained […] of CYP450 supersome, 1.3 mM NADP^+, 3.3 mM glucose-6-phosphate, 0.4 U/mL glucose-6-phosphate dehydrogenase, 3.3 mM MgCl2 and 10 μM Compound 1. Following incubation for 60 min at 37° C., 100 μL of stop solution (acetonitrile:methanol; 1:1) was added and samples centrifuged for 10 min at 10,000×g. The supernatant was then dried and reconstituted in 10 mM potassium phosphate, pH 5, further transferred to an HPLC glass vial and analyzed by HPLC-UV (described above).

[5] = biological target: CYP2A6 (Homo sapiens, UniProt P11509); test: Incubation with human recombinant CYP450 supersomes, 2A6; assay type: in vitro ADME; settings: CYP450 2A6 supersomes, 60 min, 10 μM, average of two experiments
Procedure: as §2

[6] = Total radioactivity in rat liver after [^14C]-Compound 1; assay type: in vivo, male Sprague-Dawley rats
Procedure: Isotopically diluted [^14C]-Compound 1 was administered intravenously to male Sprague-Dawley rats at 50 mg/kg or by oral gavage at 100 mg/kg.
Liver samples were collected at 2, 6 and 24 h postdose from the animals of both the IV and the PO dose groups. The samples were flash frozen after excision and kept on dry ice during homogenization. The homogenization was conducted on dry ice in 70% methanol-30% water containing 20 mM EDTA and 20 mM EGTA (about 1× (w/v) weight of the liver). Triplicate weighed aliquots (about 500 mg) were combusted in the Packard Sample Oxidizer and followed by LSC analysis to determine radioactivity […]). The average data for levels of total radioactivity in liver are summarized below.

[7] = test system: GS4.1 cells; test: Cytotoxicity of Compound 1 and RBV on GS4.1 cells using MTS assay (combination study); settings: three days, 0.6× to 1.5× EC50, alone or in combination
Procedure: The readout of the assay was measured by the bioreduction of the yellow MTS tetrazolium compound to a purple formazan product. This conversion is mediated by NADPH or NADH in metabolically active cells and is therefore directly proportional to the number of live cells in a culture. Plates were setup as described above.
Cells were plated and treated with inhibitors using the drug matrix described above.
After three days of drug treatment, 20 μL of MTS was added to each well, and then plates were incubated at 37° C./5% CO2.

[8] = Cytotoxicity (MTS assay), GS4.1 cells, Example 18; assay type: cell-based, human; settings: human, GS4.1 cells (wild-type); GS4.1 (wild-type), MTS assay, N = 3
Procedure: (§3) Cells were plated and treated with inhibitors as described above.

[9] = test system: GS4.1 cells; test: Cytotoxicity (MTS assay), GS4.1 cells, Example 18; assay type: cell-based, human; settings: wild-type or S282T replicon cells treated with up to 100 μM
Procedure: as §3

[10] = [^14C]-2′-C-methyl guanosine removed
[11] = Group 1A: IV 50 mg/kg, 2 h postdose
[12] = Group 1B: IV 50 mg/kg, 6 h postdose
[13] = Group 1C: IV 50 mg/kg, 24 h postdose
[14] = Group 2A: PO 100 mg/kg, 2 h postdose
[15] = Group 2B: PO 100 mg/kg, 6 h postdose
[16] = Group 2C: PO 100 mg/kg, 24 h postdose

CYP2A6, sequence (P11509 whole entry): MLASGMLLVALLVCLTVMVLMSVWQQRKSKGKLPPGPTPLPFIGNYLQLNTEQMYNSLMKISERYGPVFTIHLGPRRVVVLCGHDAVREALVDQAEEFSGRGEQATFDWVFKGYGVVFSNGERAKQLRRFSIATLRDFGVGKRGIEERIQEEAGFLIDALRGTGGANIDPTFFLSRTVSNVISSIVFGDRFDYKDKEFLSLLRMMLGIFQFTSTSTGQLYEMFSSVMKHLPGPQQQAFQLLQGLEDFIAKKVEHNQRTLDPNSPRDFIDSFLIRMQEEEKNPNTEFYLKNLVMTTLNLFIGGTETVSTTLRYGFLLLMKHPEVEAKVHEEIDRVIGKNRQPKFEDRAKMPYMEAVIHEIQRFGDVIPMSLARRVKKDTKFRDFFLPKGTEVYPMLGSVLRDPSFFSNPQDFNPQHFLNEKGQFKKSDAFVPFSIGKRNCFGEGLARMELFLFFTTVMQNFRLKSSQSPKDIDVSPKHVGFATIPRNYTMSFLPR
CYP1A2, sequence (P05177 whole entry): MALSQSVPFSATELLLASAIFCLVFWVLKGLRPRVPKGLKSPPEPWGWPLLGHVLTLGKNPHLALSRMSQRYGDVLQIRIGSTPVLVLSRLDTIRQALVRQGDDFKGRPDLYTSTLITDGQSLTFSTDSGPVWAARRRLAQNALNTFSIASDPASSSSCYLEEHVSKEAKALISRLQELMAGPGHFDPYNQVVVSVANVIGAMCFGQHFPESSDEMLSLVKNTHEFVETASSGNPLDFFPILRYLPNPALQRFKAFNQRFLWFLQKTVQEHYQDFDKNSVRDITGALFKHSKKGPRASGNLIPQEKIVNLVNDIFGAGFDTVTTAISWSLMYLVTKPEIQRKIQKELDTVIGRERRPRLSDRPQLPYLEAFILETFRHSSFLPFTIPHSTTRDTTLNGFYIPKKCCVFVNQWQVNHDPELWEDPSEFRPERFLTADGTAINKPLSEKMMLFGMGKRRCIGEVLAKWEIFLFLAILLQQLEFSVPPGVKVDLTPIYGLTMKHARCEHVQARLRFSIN

## C[C@@]1(O)[C@H](O)[C@@H](COP(=O)(O)OP(=O)(O)OP(=O)(O)O)O[C@H]1n1cnc2c(=O)[nH]c(N)nc21 [Compound 7, [(2R)-2-methyl-β-D-ribofuranosyl]guanine 5′-triphosphate]
[1]; in vitro half-life for Compound 7, human hepatocytes, after 2′-C-methyl guanosine
  half-life at 10 μM: 10.8 h
[1]; in vitro half-life for Compound 7, human hepatocytes, following [^14C]-Compound 1
  half-life at 10 μM: 17.4 h
[1]; in vitro intracellular t1/2 of Compound 7, human hepatocytes Hu775, after 24 h incubation with 10 μM [^14C]-2′-C-methyl guanosine, linear regression
  half-life at 10 μM: 10.8 h
[1]; in vitro intracellular t1/2 of Compound 7, human hepatocytes Hu775, after 24 h incubation with 10 μM [^14C]-Compound 1, linear regression
  half-life at 10 μM: 17.4 h
[2]; after 24 h incubation with 10 μM [^14C]-2′-C-methyl guanosine, decay time 0 h
  Decay of Compound 7: level in cellular extracts: 266 pmol/million cells
[2]; after 24 h incubation with 10 μM [^14C]-2′-C-methyl guanosine, decay time 1 h
  Decay of Compound 7: level in cellular extracts: 259 pmol/million cells
[2]; after 24 h incubation with 10 μM [^14C]-2′-C-methyl guanosine, decay time 4 h
  Decay of Compound 7: level in cellular extracts: 217 pmol/million cells
[2]; after 24 h incubation with 10 μM [^14C]-2′-C-methyl guanosine, decay time 8 h
  Decay of Compound 7: level in cellular extracts: 190 pmol/million cells
[2]; after 24 h incubation with 10 μM [^14C]-2′-C-methyl guanosine, decay time 24 h
  Decay of Compound 7: level in cellular extracts: 58.0 pmol/million cells
[2]; after 24 h incubation with 10 μM [^14C]-Compound 1, decay time 0 h
  Decay of Compound 7: level in cellular extracts: 692 pmol/million cells
[2]; after 24 h incubation with 10 μM [^14C]-Compound 1, decay time 1 h
  Decay of Compound 7: level in cellular extracts: 702 pmol/million cells
[2]; after 24 h incubation with 10 μM [^14C]-Compound 1, decay time 4 h
  Decay of Compound 7: level in cellular extracts: 597 pmol/million cells
[2]; after 24 h incubation with 10 μM [^14C]-Compound 1, decay time 8 h
  Decay of Compound 7: level in cellular extracts: 497 pmol/million cells
[2]; after 24 h incubation with 10 μM [^14C]-Compound 1, decay time 24 h
  Decay of Compound 7: level in cellular extracts: 273 pmol/million cells
[2]; [10]
  Compound 7 levels after 24 hours without drug: 58 pmol/million cells
  reduction of Compound 7 levels after 24 hours without drug: 78%
[2]; [^14C]-Compound 1 removed
  Compound 7 levels after 24 hours without drug: 273 pmol/million cells
  reduction of Compound 7 levels after 24 hours without drug: 61%
[2]; after 24 h with 10 μM [^14C]-Compound 1
  Compound 7 levels at time zero: 692 pmol/million cells
[2]; after 24 h with [^14C]-2′-C-methyl guanosine
  Compound 7 levels at time zero: 266 pmol/million cells

## CC(C)(CO)C(=O)SCCOP(=O)(NCc1ccccc1)OC[C@H]1O[C@@H](n2cnc3c(=O)[nH]c(N)nc32)[C@](C)(O)[C@@H]1O (mixture of isomers) [Compound 1, 3-hydroxy-2,2-dimethyl-thiopropionic acid S-(2-{[(2R,3R,4R,5R)-5-(2-amino-6-oxo-1,6-dihydro-purin-9-yl)-3,4-dihydroxy-4-methyl-tetrahydro-furan-2-ylmethoxy]-benzylamino-phosphoryloxy}-ethyl) ester]
[3]
  CC50 at 3 days: > 100 µM
[4]
  % Residual Compound 1: 104%
[5]
  % Residual Compound 1: 105%
[6]; [11]
  Concentration of total radioactivity in liver as μg equivalents/gram: 206 ± 24 μg equivalents/gram
  Total radioactivity in liver as % AD: 15.5 ± 0.7 % AD
[6]; [12]
  Concentration of total radioactivity in liver as μg equivalents/gram: 137 ± 12 μg equivalents/gram
  Total radioactivity in liver as % AD: 10.1 ± 1.0 % AD
[6]; [13]
  Concentration of total radioactivity in liver as μg equivalents/gram: 23.2 ± 3.1 μg equivalents/gram
  Total radioactivity in liver as % AD: 1.76 ± 0.11 % AD
[6]; [14]
  Concentration of total radioactivity in liver as μg equivalents/gram: 5.09 ± 0.78 μg equivalents/gram
  Total radioactivity in liver as % AD: 0.20 ± 0.04 % AD
[6]; [15]
  Concentration of total radioactivity in liver as μg equivalents/gram: 10.3 ± 1.2 μg equivalents/gram
  Total radioactivity in liver as % AD: 0.37 ± 0.05 % AD
[6]; [16]
  Concentration of total radioactivity in liver as μg equivalents/gram: 4.08 ± 1.10 μg equivalents/gram
  Total radioactivity in liver as % AD: 0.17 ± 0.03 % AD
[6]; IV [^14C]Compound 1, 2 h
  total radioactivity in liver, % of the administered dose: 16%
[6]; IV [^14C]Compound 1, 6 h
  total radioactivity in liver, % of the administered dose: 10%
[6]; IV [^14C]Compound 1, 24 h
  total radioactivity in liver, % of the administered dose: 1.8%
[6]; IV, 2 h
  total radioactivity in liver: 206 μg equivalents of Compound 1/g of liver
[6]; IV, 6 h
  total radioactivity in liver: 137 μg equivalents of Compound 1/g of liver
[6]; IV, 24 h
  total radioactivity in liver: 23 μg equivalents of Compound 1/g of liver
[6]; oral administration, 2 h
  total radioactivity in liver: 5 μg equivalents of Compound 1/g of liver
  total radioactivity in liver, % of the dose: 0.2%
[6]; oral administration, 6 h
  total radioactivity in liver: 10 μg equivalents of Compound 1/g of liver
  total radioactivity in liver, % of the dose: 0.4%
[6]; oral administration, 24 h
  total radioactivity in liver: 4 μg equivalents of Compound 1/g of liver
  total radioactivity in liver, % of the dose: 0.2%
[7]
  in vitro cytotoxicity (MTS): no evidence of in vitro cytotoxicity
[8]
  CC50 at 3 days: > 100 µM
[9]
  in vitro cytotoxicity (MTS): no evidence of in vitro cytotoxicity
